According to ChEMBL document CHEMBL1201862, “PubChem BioAssay data set” (2004):
Calls of active or inactive are those of the source.

Legend:
[1] = microbe, parasite or virus in culture; type: functional; conditions: Mycobacterium tuberculosis
[2] = THP-1 cell cytotoxicity, dose response, cytotoxicity control for non-replicating M. tuberculosis project (AID 489025); type: functional
[3] = HepG2 cell cytotoxicity, dose response, cytotoxicity control for non-replicating M. tuberculosis project (AID 489018); type: functional; conditions: Mycobacterium tuberculosis
cells = type: functional
Vero [4] = assay: cells; type: functional; conditions: Chlorocebus sabaeus
[5] = target: T1, Phosphoethanolamine/phosphocholine phosphatase (Homo sapiens, UniProt Q8TCT1); assay: SAR assay for compounds that inhibit PHOSPHO1. [Related pubchem assays (depositor defined):AID1545, AID1565, AID1574]
T1 sequence (Q8TCT1 whole entry): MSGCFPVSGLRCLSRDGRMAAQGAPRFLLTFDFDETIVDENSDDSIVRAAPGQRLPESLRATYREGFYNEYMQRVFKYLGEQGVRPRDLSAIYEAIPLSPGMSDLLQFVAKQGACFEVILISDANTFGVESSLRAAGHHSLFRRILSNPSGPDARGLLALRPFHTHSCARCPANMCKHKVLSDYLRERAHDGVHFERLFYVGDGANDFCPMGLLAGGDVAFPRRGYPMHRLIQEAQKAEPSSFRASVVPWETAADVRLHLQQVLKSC

CAAX prenyl protease 2 = target: T2, CAAX prenyl protease 2 (Saccharomyces cerevisiae S288c, UniProt Q03530); type: biochemical
T2 sequence (Q03530 whole entry): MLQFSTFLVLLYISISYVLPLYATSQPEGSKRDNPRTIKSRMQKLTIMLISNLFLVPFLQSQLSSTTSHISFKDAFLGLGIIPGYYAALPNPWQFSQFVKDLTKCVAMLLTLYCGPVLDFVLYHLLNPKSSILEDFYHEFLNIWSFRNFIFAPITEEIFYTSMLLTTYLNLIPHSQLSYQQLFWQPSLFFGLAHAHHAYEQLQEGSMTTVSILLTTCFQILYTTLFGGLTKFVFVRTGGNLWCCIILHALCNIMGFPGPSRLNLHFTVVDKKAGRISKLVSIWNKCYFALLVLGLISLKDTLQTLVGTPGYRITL

HEK293 [6] = assay: NOD1 signaling inhibitors, primary screen, cell-based, luminescence, uHTS (AID 1578); type: functional; conditions: Homo sapiens
HEK293 [7] = assay: cells; type: functional, cell-based; conditions: Homo sapiens
HEK293 [8] = assay: cells; type: functional, cell-based; conditions: Homo sapiens; remark: listed apart in the source
NS3 = NS3 (Hepatitis C virus, UniProt A3EZJ3); assay: PubChem AID 2173; design: species or system Hepacivirus hominis
[9] = target: Nucleotide-binding oligomerization domain-containing protein 2 (Homo sapiens, UniProt Q9HC29); assay: NOD2 signaling inhibitors, cell-based, luminescence, uHTS, HEK293 (AID 1566); type: functional
HEK293 [10] = assay: cells; type: functional, cell-based; conditions: Homo sapiens; remark: listed apart in the source
Hexokinase = target: T3, Hexokinase (Trypanosoma brucei, UniProt Q38C41); assay: Confirmation assay for inhibitors of Trypanosoma brucei hexokinase 1-Analogue-first series. [Related pubchem assays (depositor defined):AID1430, AID1632, AID2516, AID2560, AID2579, AID2600, AID449725, AID492951]; type: functional
T3 sequence (Q38C41 whole entry): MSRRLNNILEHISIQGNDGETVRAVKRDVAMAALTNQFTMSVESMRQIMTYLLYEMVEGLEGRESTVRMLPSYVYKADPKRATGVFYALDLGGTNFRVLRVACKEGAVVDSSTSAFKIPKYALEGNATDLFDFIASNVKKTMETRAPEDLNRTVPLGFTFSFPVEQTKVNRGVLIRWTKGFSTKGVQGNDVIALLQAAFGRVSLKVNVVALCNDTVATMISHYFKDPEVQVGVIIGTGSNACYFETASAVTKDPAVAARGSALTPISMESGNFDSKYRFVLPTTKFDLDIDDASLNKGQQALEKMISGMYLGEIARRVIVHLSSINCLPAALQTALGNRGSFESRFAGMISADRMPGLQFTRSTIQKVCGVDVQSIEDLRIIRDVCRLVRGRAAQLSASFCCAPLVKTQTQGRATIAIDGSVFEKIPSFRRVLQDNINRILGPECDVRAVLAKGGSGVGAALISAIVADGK

[11] = target: Luciferin 4-monooxygenase (Photinus pyralis, UniProt P08659); assay: firefly luciferase enzyme inhibitors, dose response, biochemical, luminescence (AID 1891)
[12] = target: Cyclin-dependent kinase 5/CDK5 activator 1 (Homo sapiens, UniProt Q00535); assay: CDK5/p35 kinase inhibitors, dose response, biochemical, cherry-picked samples, set 2 (AID 504545)
HeLa = assay: HeLa cell cytotoxicity, dose response, cytotoxicity control, 24 h, cherry-picked samples (AID 504726); type: functional, cell-based; conditions: Homo sapiens;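 note: potency for cytotoxicity as loss of luminescence signal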
[13] = target: DNA dC->dU-editing enzyme APOBEC-3G (Homo sapiens, UniProt Q9HC16); assay: Dose Response confirmation of small molecule APOBEC3G DNA Deaminase Inhibitors via a fluorescence-based single-stranded DNA deaminase assay. [Related pubchem assays (depositor defined):AID493012, AID493028]; type: functional
[14] = target: Voltage-dependent T-type calcium channel subunit alpha-1H (Homo sapiens, UniProt O95180); type: functional;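 note: channel activity triggered by adding a high calcium stimulation buffer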
[15] = A Cell Based Secondary Assay To Explore Cytotoxicity of Compounds that Sensitize Mycobacterium Tuberculosis to Beta-Lactam Antibiotics.; type: functional
[16] = Vero E6 cell cytotoxicity, dose response, cytotoxicity control for non-replicating M. tuberculosis project, secondary assay (AID 492998); type: functional, VeroE6; conditions: Vero C1008
[17] = target: Neurotensin receptor type 1 (Homo sapiens, UniProt P30989); type: functional;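 note: Image-based confirmatory dose-response assay measuring agonist activity at NTR1; NTR1-expressing U2OS osteosarcoma cells imaged for beta-arrestin GFP spot formation; agonist potency where compounds increase beta-arrestin recruitment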
Nonstructural protein 1 = Nonstructural protein 1 (Influenza A virus, UniProt Q194T2); type: functional, Influenza A virus (A/California/07/2009(H1N1))
Vero [18] = assay: Vero cell cytotoxicity, cytotoxicity control for flavivirus capping enzyme inhibitors (AID 588742); type: functional; conditions: Chlorocebus sabaeus
Genome polyprotein = Genome polyprotein (dengue virus type 2, UniProt P29990); assay: Dengue-2 NS5 methyltransferase inhibitors, primary screen, biochemical, confirmation dose response (AID 588689); type: functional
Beta-galactosidase = Beta-galactosidase (Escherichia coli, UniProt Q8VNN2); assay: PubChem AID 485352; type: functional
[19] = target: T4, Type-1 angiotensin II receptor (Homo sapiens, UniProt P30556); assay: AT1 receptor antagonists, dose response, selectivity assay for APJ receptor antagonist project, cell-based, uHTS hits (AID 463214); type: functional;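 note: antagonist potency against angiotensin II stimulated AT1 response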
T4 sequence (P30556 whole entry): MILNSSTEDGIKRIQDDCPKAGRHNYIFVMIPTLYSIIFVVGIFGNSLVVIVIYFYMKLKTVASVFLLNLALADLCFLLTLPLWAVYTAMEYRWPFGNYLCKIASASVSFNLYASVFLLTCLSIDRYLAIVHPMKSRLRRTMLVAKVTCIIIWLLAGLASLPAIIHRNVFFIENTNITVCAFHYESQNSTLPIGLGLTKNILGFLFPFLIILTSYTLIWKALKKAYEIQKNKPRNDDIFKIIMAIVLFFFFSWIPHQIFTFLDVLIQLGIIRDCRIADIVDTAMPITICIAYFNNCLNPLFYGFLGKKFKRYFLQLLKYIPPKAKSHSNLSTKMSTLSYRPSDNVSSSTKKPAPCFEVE

[20] = Luminescence Cell-Based Dose Retest to Confirm Inhibitors of Cancer Stem Cells. [Related pubchem assays (depositor defined):AID2717, AID2721]; type: functional, Homo sapiens; conditions: Homo sapiens
[21] = target: T5, Ubiquitin-conjugating enzyme E2 N (Homo sapiens, UniProt P61088); type: functional;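 note: Dose-response confirmation in a TR-FRET assay detecting UBC13-driven polyubiquitin chain formation, inhibition measured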
T5 sequence (P61088 whole entry): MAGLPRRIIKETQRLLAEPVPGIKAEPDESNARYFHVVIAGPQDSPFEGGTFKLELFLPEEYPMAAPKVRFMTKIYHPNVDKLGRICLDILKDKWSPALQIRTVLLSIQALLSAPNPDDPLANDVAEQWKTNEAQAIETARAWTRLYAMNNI

[22] = tested on: Streptococcus sp. 'group A'; assay: growth inhibition of control SK(-) GAS strain, dose response, counter-screen for streptokinase expression inhibitor project, luminescence, kanamycin, BacTiterGlo, confirmation (AID 1900); type: functional, organism-based
Streptokinase A = target: T6, Streptokinase A (Streptococcus pyogenes serotype M1, UniProt P10520); assay: S. pyogenes streptokinase expression inhibitors, potency, dose response, plasminogen activation absorbance, OD405 (AID 1914); type: functional, Streptococcus pyogenes M1 GAS;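 note: secreted streptokinase activity via plasminogen activation per viability signal from cell pellet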
T6 sequence (P10520 whole entry): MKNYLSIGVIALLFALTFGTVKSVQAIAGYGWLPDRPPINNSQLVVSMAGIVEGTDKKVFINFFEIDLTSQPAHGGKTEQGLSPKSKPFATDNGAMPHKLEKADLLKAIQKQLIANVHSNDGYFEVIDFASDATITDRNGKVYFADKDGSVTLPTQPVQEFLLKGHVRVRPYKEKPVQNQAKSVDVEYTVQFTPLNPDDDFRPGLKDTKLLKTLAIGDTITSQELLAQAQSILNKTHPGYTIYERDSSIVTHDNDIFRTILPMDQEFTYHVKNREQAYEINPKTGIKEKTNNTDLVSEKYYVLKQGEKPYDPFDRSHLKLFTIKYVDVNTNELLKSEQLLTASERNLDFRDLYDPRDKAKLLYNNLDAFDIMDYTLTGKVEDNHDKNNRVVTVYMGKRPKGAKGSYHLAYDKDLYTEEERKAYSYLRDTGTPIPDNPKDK

Streptococcus = assay: Group A Streptococcus viability loss, dose response, counter-screen for streptokinase expression inhibitor project, luminescence, BacTiterGlo (AID 1915); type: functional, organism-based;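 note: potency for reduction of bacterial viability or growth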
[23] = target: T7, Microphthalmia-associated transcription factor (Homo sapiens, UniProt O75030); assay: TRPM1 promoter luciferase signal decrease, dose response, MITF inhibitor project, cell-based, SK-MEL-5, cherry-picked, set 3 (AID 493073); type: functional
T7 sequence (O75030 whole entry): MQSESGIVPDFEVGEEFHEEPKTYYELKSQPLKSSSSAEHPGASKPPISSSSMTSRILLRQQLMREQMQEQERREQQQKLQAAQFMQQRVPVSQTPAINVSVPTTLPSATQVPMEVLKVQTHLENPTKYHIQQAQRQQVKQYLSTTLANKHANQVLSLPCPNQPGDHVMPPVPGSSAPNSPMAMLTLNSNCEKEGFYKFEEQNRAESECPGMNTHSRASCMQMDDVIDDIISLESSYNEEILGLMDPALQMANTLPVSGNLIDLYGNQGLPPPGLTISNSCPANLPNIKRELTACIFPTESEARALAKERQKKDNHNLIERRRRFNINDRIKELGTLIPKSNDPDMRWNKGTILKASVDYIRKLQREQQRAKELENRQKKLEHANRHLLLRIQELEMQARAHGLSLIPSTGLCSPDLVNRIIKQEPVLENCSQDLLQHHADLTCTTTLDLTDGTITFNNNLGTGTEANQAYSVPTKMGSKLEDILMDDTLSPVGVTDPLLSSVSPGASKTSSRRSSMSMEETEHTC

Chain of Voltage-dependent T-type calcium channel subunit alpha-1H (O95180 whole entry): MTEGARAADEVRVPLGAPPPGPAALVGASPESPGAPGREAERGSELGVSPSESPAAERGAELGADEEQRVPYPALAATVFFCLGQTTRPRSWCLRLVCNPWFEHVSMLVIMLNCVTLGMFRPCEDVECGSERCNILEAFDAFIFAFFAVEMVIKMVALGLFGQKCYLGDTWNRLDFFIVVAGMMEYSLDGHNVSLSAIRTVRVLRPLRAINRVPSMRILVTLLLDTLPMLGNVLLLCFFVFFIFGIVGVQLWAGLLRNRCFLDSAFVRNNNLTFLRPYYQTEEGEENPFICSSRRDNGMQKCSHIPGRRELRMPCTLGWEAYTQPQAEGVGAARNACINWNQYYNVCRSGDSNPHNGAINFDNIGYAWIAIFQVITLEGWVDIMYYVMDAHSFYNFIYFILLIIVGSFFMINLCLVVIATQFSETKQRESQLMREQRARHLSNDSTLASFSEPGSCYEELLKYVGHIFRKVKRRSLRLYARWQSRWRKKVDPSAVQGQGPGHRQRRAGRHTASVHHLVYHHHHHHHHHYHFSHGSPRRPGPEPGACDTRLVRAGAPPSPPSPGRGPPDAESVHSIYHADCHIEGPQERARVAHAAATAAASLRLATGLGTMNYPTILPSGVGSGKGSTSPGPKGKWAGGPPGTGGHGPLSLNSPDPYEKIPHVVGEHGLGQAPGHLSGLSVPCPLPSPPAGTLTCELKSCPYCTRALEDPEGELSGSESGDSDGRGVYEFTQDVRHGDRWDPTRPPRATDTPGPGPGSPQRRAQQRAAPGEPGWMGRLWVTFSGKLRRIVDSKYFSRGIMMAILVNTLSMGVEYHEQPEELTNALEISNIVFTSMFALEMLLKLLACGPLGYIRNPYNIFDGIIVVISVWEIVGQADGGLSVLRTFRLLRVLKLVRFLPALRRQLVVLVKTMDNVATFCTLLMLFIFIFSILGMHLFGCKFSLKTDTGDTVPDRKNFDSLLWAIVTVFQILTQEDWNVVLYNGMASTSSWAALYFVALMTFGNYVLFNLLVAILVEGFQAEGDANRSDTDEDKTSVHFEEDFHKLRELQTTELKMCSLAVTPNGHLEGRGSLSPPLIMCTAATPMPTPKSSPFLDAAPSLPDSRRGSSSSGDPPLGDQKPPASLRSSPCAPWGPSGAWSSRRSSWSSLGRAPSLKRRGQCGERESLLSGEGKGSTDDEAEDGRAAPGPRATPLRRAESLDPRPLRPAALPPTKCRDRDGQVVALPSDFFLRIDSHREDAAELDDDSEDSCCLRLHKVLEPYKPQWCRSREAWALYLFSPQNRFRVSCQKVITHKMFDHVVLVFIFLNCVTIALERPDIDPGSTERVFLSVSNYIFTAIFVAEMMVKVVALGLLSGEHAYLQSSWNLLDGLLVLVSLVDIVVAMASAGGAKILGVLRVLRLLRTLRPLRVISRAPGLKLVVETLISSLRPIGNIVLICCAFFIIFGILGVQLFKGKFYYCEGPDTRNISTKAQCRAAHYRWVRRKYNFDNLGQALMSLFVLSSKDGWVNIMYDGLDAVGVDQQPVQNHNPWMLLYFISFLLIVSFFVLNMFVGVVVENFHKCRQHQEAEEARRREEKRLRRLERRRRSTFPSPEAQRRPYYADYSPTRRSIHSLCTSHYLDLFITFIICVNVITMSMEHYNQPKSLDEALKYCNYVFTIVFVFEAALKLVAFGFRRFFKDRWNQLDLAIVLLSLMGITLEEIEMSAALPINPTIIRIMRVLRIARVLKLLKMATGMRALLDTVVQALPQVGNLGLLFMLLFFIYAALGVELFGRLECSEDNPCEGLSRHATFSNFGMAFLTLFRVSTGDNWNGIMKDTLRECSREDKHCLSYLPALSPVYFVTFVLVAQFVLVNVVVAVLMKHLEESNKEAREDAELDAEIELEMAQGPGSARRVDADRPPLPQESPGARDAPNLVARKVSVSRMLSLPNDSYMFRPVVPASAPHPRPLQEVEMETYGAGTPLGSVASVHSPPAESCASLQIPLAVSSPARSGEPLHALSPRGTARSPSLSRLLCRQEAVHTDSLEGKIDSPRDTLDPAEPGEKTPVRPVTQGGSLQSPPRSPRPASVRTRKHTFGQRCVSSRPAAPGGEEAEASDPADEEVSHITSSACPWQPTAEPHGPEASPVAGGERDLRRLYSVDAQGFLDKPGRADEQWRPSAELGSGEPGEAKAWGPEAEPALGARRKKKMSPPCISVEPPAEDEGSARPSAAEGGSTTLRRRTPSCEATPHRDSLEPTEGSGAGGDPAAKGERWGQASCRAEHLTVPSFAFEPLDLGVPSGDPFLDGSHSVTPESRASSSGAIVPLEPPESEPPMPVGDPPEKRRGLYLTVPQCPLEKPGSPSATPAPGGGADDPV
Chain of Neurotensin receptor type 1 (P30989 whole entry): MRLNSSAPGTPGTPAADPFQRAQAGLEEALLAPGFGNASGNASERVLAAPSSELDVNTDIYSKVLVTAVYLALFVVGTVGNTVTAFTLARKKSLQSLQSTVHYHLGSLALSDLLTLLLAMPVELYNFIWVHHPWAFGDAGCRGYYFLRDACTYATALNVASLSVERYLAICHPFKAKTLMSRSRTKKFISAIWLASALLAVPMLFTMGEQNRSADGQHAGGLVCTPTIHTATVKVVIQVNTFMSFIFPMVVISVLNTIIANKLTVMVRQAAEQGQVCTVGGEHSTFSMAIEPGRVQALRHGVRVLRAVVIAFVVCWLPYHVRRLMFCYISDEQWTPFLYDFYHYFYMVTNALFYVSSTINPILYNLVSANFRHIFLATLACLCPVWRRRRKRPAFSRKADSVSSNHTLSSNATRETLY
Chain of Genome polyprotein (P29990 2492-3391 limits assumed): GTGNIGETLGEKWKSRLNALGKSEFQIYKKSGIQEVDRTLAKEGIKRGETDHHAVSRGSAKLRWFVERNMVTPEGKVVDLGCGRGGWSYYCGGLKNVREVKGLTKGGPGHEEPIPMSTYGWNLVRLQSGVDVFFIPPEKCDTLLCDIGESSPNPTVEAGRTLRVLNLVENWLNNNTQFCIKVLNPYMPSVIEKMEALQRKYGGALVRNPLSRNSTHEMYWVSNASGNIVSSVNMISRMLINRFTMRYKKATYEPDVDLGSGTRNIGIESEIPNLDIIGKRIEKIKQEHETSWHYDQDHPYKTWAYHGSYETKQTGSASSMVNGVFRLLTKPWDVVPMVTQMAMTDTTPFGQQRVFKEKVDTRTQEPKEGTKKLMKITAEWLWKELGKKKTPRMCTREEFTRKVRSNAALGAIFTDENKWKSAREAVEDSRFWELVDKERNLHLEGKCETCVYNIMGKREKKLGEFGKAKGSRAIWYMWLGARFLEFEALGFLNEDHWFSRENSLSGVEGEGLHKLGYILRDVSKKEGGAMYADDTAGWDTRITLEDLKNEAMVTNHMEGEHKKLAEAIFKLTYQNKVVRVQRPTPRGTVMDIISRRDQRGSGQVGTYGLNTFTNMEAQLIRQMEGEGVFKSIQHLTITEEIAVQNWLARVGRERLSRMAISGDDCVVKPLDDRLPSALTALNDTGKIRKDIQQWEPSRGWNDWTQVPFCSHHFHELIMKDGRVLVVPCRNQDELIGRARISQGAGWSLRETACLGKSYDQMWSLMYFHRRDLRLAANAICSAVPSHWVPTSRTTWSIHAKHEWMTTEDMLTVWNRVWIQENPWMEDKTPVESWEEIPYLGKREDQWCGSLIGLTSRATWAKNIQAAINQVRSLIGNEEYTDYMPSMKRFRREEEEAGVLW
Chain of Nucleotide-binding oligomerization domain-containing protein 2 (Q9HC29 whole entry, the tested form may be a part): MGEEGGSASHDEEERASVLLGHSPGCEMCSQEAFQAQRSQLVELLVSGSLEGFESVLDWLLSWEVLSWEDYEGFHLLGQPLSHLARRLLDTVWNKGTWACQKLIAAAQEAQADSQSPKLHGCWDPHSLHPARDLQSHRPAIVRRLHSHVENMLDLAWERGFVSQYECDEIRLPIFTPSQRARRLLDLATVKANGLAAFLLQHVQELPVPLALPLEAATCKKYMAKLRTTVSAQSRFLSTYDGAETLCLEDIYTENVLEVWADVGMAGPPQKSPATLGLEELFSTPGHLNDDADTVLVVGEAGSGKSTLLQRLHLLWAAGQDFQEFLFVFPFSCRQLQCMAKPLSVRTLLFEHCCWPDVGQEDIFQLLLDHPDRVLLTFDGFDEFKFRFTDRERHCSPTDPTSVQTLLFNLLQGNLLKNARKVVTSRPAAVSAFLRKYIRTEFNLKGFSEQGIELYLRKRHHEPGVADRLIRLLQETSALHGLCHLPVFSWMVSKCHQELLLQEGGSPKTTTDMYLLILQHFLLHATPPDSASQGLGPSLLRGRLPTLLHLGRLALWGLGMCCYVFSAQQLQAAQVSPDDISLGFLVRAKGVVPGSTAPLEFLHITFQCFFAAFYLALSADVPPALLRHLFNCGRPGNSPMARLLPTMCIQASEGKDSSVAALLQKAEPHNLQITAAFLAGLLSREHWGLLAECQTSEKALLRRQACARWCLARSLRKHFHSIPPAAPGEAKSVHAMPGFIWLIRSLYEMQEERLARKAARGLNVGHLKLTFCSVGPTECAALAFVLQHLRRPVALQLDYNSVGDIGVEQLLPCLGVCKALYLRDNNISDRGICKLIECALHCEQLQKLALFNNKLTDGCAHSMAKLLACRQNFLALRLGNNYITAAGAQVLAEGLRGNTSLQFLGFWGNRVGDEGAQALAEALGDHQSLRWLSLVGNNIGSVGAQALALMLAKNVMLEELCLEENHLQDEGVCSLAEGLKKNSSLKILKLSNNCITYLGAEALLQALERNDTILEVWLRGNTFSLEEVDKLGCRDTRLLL
Chain of Nonstructural protein 1 (Q194T2 whole entry): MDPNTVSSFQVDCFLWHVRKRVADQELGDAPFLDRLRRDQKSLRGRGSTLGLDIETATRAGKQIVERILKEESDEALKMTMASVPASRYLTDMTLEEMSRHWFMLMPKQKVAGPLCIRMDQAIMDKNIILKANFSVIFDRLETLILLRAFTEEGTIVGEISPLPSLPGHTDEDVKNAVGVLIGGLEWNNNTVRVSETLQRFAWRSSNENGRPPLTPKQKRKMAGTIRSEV

CCNc1nc(NC(C)(C)C)nc(N2CCCCC2)n1
CC50 [1]: 13.4 µM (active)
CC50 [2]: > 40 µM (active)
CC50 [3]: > 20 µM (active)
IC50 (cells): 28.8 µM (active)
CC50 (Vero [4]): > 25 µM (active)

COc1ccc(-n2sc3cc(F)ccc3c2=O)cc1
IC50 [5]: 5.42 µM (inactive)

O=C(COC(=O)c1ccccc1Cc1ccccc1)NC1CCS(=O)(=O)C1 (stereo not drawn)
AC50 (CAAX prenyl protease 2): 4.52 µM (active)

COc1ccccc1OCCCOc1cccc(/C=C2\SC(=O)NC2=O)c1
EC50 (HEK293 [6]): 9.43 µM (active)
IC50 (HEK293 [7]): 15.7 µM (active)
IC50 (HEK293 [8]): > 20 µM (inactive)
IC50 (NS3): 3.82 µM (active)
EC50 [9]: 9.15 µM (active)
IC50 (HEK293 [10]): > 20 µM (inactive)

O=C(NCc1ccccc1)n1sc2ccccc2c1=O
IC50 (Hexokinase): 4.44 µM (active)

COc1ccc(C(=O)ON=C(N)c2ccccc2)cc1
EC50 [11]: 1.21 µM (active)
AC50 [12]: 17.2 µM (active)

CCn1c(S)nnc1-c1ccc([N+](=O)[O-])cc1
AC50 (HeLa): 239 µM (active)
IC50 [13]: 9.77 µM (active)

COc1ccc(CNC(=O)CSCc2cnn(-c3ccccc3)c2-n2cccc2)cc1
EC50 [14]: 4.8 µM (active)

COC(=O)/C(=C\Nc1ccc(Cl)cc1Cl)NC(=O)c1ccc(Cl)cc1Cl
CC50 [15]: > 40 µM (active)

O=[N+]([O-])c1ccc2[nH]c(-c3ccccn3)nc2c1
CC50 [2]: 13.4 µM (active)
CC50 [3]: 17.4 µM (active)
CC50 [16]: 14.8 µM (active)
IC50 (cells): 42.1 µM (active)

COc1ccccc1CC(=O)Nc1ccc2c(C)cc(=O)oc2c1
AC50 (CAAX prenyl protease 2): 34.5 µM (active)

COC(=O)c1ccc(Cl)cc1NS(=O)(=O)c1ccc(OC)cc1
IC50 (Hexokinase): > 25 µM (inactive)

CCOc1ccc(C(=O)Nc2cc(Cl)ccc2C(=O)O)cc1
IC50 (Hexokinase): 20.7 µM (active)

CCOC(=O)c1cc(-c2ccc(/C=C3/C(=O)N(c4ccc(C(=O)O)cc4)N=C3C)o2)ccc1Cl
EC50 [17]: 16 µM (active)
IC50 (Nonstructural protein 1): 66.1 µM (active)
CC50 (Vero [18]): 24.9 µM (active)
CC50 (Vero [4]): > 25 µM (active)
IC50 (Genome polyprotein): 21.2 µM (active)

Cc1ccc(NC(=O)CSc2nnc(Cc3cccn3C)n2-c2ccc(F)cc2)cc1
EC50 [14]: 3.49 µM (active)

CC(C)N1CCc2c(sc(NC(=O)c3cc(-c4cccs4)nc4ccccc34)c2C(N)=O)C1
CC50 [15]: 6.25 µM (active)
EC50 (Beta-galactosidase): > 40 µM (inactive)
IC50 [19]: > 40 µM (not active)
AC50 [20]: 13.2 µM (active)
IC50 [21]: > 20 µM (inactive)

Cc1ccc(S(=O)(=O)N2CCCC(NC(=O)N3CCN(c4ccccc4)CC3)C2)cc1 (stereo not drawn)
EC50 [14]: 8.79 µM (active)

N#CC1=C(c2ccccc2)/C(=C/c2ccccc2)OC1=O
EC50 [22]: 10.6 µM (active)
EC50 (Streptokinase A): 2.38 µM (active)
CC50 [1]: 24.1 µM (active)
EC50 (Streptococcus): > 150 µM (not active)
CC50 [2]: > 40 µM (active)
CC50 [16]: > 20 µM (active)
EC50 [17]: 6.66 µM (active)
AC50 [23]: 4.25 µM (active)
IC50 (cells): 10 µM (active)
